One test deals with cholesterol absorption. Briefly: Inhibition of cholesterol absorption in rats fed 1% cholesterol:0.5% cholic acid diet. The class given is in vivo, male Sprague-Dawley rats. As to conditions: po, 336 h, rat, 2 weeks; for response vs control in vivo at 0.01 %: dose .01% of the diet; for response vs control in vivo at 0.03 %: dose .03% of the diet. The method, boiled down: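 Male Sprague-Dawley rats (150-170 g) fed 1% cholesterol:0.5% cholic acid diet for 2 weeks with compound at 0.001, 0.003, 0.01 or 0.03% of diet. Serum cholesterol measured enzymatically; liver cholesterol from saponified large-lobe sample after petroleum ether extraction. Liver and serum sterol expressed as percent of untreated controls.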

Test [1] addresses T1, fatty acyl CoA: cholesterol acyl transferase (ACAT) (Rattus norvegicus, UniProt O70536).
T1 construct: The supernatant, containing the microsomal fraction, served as the source of the cholesterol-esterifying enzyme; from tissue; host or cells: rat adrenals, supernatant of 1,000 x g centrifugation containing the microsomal fraction
T1 sequence (O70536 1-545): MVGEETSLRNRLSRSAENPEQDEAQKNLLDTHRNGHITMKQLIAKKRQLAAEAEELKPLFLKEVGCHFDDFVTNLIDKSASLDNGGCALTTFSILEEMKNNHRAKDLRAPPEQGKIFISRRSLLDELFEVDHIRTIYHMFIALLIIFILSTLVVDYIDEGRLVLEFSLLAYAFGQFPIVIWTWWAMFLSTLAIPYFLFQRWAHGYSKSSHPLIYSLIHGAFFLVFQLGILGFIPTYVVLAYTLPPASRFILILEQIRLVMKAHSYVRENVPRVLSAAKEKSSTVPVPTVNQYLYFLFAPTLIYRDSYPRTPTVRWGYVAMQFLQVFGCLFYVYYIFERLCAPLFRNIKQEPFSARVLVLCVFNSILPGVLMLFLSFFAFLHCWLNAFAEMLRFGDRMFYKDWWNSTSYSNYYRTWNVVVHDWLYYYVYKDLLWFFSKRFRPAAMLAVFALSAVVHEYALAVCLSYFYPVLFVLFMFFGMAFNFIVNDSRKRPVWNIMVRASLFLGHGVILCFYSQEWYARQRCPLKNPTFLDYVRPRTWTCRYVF
Briefly: Inhibition of fatty acyl CoA:cholesterol acyl transferase (ACAT), rat adrenal enzyme. In kind it is biochemical. The following applies: for IC50: several concentrations. The method, boiled down: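 Enzyme source was the microsomal supernatant of rat adrenal homogenate (0.2M potassium phosphate, pH 7.4) with BSA, preincubated with compound (5.2 μg/ml final for single-point) for 10 min at 37° C. Then [14C]oleoyl CoA added, 10 min at 37° C. TLC-separated cholesteryl ester was counted; percent inhibition versus control, IC50 from several concentrations.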

Where [2] appears, read: read-out: LS (liver sterol), percentage of control values.
Where [3] appears, read: read-out: SS (serum sterol), percentage of control values.
Where [4] appears, read: rat adrenal ACAT, final concentration 5.2 μg/ml, read-out: % Inhibition.

Molecules are shown by their SMILES. Values joined by “and” are separate entries in the source; they are usually repeats but may differ in a detail not shown here. Equal entries are not always repeated. Where two headings read alike, the source gives them in different places.

For orientation: IC50 means the concentration needed to halve the response being measured. Higher therefore signals weaker potency. Regarding `CCCCCCCN(Cc1ccc(C(C)C)cc1)C(=O)Nc1ccc(Cl)cc1C` [1-(n-Heptyl)-1-[4-(isopropyl)benzyl]-3-(4-chloro-2-methylphenyl)urea], the response vs control in vivo at 0.01 % in the test with cholesterol absorption (setting [2]) amounted to 75%; with cholesterol absorption (setting [3]), 60%. The molecule further came in with an IC50 in test [1] (rat adrenal ACAT) of 1740 nM.
The term inhibition denotes the percentage by which the read-out fell short of the control. Consider `CCCCOc1ccc(CN(Cc2ccccc2)C(=O)Nc2cc(C)c(C)cc2C)cc1` [1-Benzyl-1-(4-butyloxybenzyl)-3-(2,4,5-trimethylphenyl)urea], for which the response vs control in vivo at 0.03 % with cholesterol absorption (setting [2]) came to 12%; in the test on cholesterol absorption (setting [3]), 43%. Further, the inhibition at 5.2 µg/mL in test [1] (setting [4]) came out at 95.8%.
The corresponding values for `Cc1cc(Cl)ccc1NC(=O)N(Cc1ccccc1)C(Cc1ccccc1)c1ccc(OCc2ccccc2)cc1` (stereo not drawn) [1-Benzyl-1-[2-phenyl-1-(4-benzyloxyphenyl)ethyl]-3-(2-methyl-4-chlorophenyl)urea] are 31%, 50% and 89.3%.
Consider `CCCCOc1ccc(CN(Cc2ccccc2)C(=O)Nc2ccc(F)cc2F)cc1` [1-Benzyl-1-(4-n-butoxybenzyl)-3-(2,4-difluorophenyl)urea], for which the response vs control in vivo at 0.03 % was determined as 22% in the test with cholesterol absorption (setting [2]) and 53% in the test with cholesterol absorption (setting [3]). The inhibition at 5.2 µg/mL in test [1] (setting [4]) was found to be 88%.
`CCCCc1ccc(CN(CCCCCCO)C(=O)Nc2ccc(Cl)cc2C)cc1` [1-[(4-Butylphenyl)methyl]-3-(4-chloro-2-methylphenyl)-1-(6-hydroxyhexyl)urea]: the response vs control in vivo at 0.03 % turned out to be 53% in the test with cholesterol absorption (setting [2]) and 6% in the test with cholesterol absorption (setting [3]). Also, testing at 5.2 µg/mL in test [1] gave an inhibition of 90%.
For `CCCCc1ccc(CN(CCCCC[Si](C)(C)C)C(=O)Nc2ccc(Cl)cc2C)cc1` [1-[(4-Butylphenyl)methyl]-3-(4-chloro-2-methylphenyl)-1-[5-(trimethylsilyl)pentyl]urea], in that order: 62%, 50% and 90%.
Consider `CCCCc1ccc(CN(Cc2ccccc2)C(=O)Nc2ccc(C)cc2C)cc1` [1-Benzyl-1-(4-n-butylbenzyl)-3-(2,4-dimethylphenyl)urea], for which the results for the response vs control in vivo at 0.03 % with cholesterol absorption (setting [2]) and in the test with cholesterol absorption (setting [3]) were 20% and 41%, respectively. Moreover, the inhibition at 5.2 µg/mL in test [1] (setting [4]) turned out to be 91.9%.
The % Inhibition is the drop in the measured response relative to a control, in per cent. With `O=C(Nc1ccc(F)cc1F)N(Cc1ccccc1)C(Cc1ccccc1)c1ccc(OCc2ccccc2)cc1` (stereo not drawn) [1-Benzyl-1-[2-phenyl-1-(4-benzyloxyphenyl)ethyl]-3-(2,4-difluorophenyl)urea], the response vs control in vivo at 0.03 % in the test on cholesterol absorption (setting [2]) came out at 27%; in the test on cholesterol absorption (setting [3]), 48%. Further, in test [1] (rat adrenal ACAT, final concentration 5.2 μg/ml), the “% Inhibition” value is 70.0% and 91.0%.
Consider `COc1ccccc1CN(Cc1ccccc1F)C(=O)Nc1ccc(C)cc1C` [1-(2-Fluorobenzyl)-1-(2-methoxybenzyl)-3-(2,4-dimethylphenyl)urea], for which the response vs control in vivo at 0.03 % in the test with cholesterol absorption (setting [2]) was 20%; with cholesterol absorption (setting [3]) it was 45%. For the same molecule, in test [1] (setting [4]), the inhibition at 5.2 µg/mL is 41.5%.
In the case of `Cc1cc(NC(=O)N(CCC(C)(C)C)Cc2ccccc2)c(C)cc1Cl` [1-(3,3-Dimethylbutyl)-1-(benzyl)-3-(4-chloro-2,5-dimethylphenyl)urea], the results for the response vs control in vivo at 0.03 % with cholesterol absorption (setting [2]) and in the test with cholesterol absorption (setting [3]) were 30% and 55%, respectively. The molecule also displayed an inhibition at 5.2 µg/mL in test [1] of 90%.
In the case of `CCCCc1ccc(CN(CCC(C)(C)C)C(=O)Nc2ccc(Cl)cc2C)cc1` [1-(3,3-Dimethylbutyl)-1-[4-(n-butyl)benzyl]-3-(4-chloro-2-methylphenyl)urea], the response vs control in vivo at 0.03 % in the test on cholesterol absorption (setting [2]) stood at 13%; in the test with cholesterol absorption (setting [3]) it was 46%. For the same molecule, the inhibition at 5.2 µg/mL in test [1] (setting [4]) was found to be 90.5%.
`CC(C)(C)CCN(Cc1cccs1)C(=O)Nc1ccc(F)cc1F` [3-(2,4-Difluorophenyl)-1-(3,3-dimethylbutyl)-1-(2-thienylmethyl)urea]: the response vs control in vivo at 0.03 % in the test on cholesterol absorption (setting [2]) is 73%; in the test on cholesterol absorption (setting [3]), 66%. The inhibition at 5.2 µg/mL in test [1] came to 90%.
Regarding `CCCCCCCN(Cc1ccc(OCCCC)cc1)C(=O)Nc1cccc(C(F)(F)F)c1` [1-(n-Heptyl)-1-(4-n-butoxybenzyl)-3-(3-trifluoromethylphenyl)urea], the response vs control in vivo at 0.03 % in the test with cholesterol absorption (setting [2]) stood at 86%; with cholesterol absorption (setting [3]), 80%. The inhibition at 5.2 µg/mL in test [1] (setting [4]) was 82.4%.
For `CCCCCCCN(Cc1ccc(OCCCC)cc1)C(=O)Nc1cc(C)c(C)cc1C` [1-(n-Heptyl)-1-(4-butyloxybenzyl)-3-(2,4,5-trimethylphenyl)urea], in that order: 17%, 32% and 95.6%.
For `CCCCCOc1ccc(CN(Cc2ccc(CCCCC)cc2)C(=O)Nc2cc(Cl)c(Cl)cc2Cl)cc1` [1-(4-n-Pentylbenzyl)-1-(4-n-pentyloxybenzyl)-3-(2,4,5-trichlorophenyl)urea], in that order: 92%, 85% and 80%.
Consider `Cc1cc(Cl)cc(C)c1NC(=O)N(CCC(C)(C)C)Cc1ccc(CC(C)(C)C)cc1` [1-(3,3-Dimethylbutyl)-1-[4-(2,2-dimethylpropyl)benzyl]-3-(4-chloro-2,6-dimethylphenyl)urea], for which the response vs control in vivo at 0.03 % came out at 11% in the test with cholesterol absorption (setting [2]) and 31% in the test with cholesterol absorption (setting [3]). Moreover, at 5.2 µg/mL the inhibition in test [1] was 90%.
As for `CCCCCCCN(Cc1cccs1)C(=O)Nc1c(Cl)cc(Cl)cc1Cl` [1-Heptyl-1-(2-thienylmethyl)-3-(2,4,6-trichlorophenyl)urea], the response vs control in vivo at 0.03 % with cholesterol absorption (setting [2]) was found to be 28%; in the test with cholesterol absorption (setting [3]), 56%. Besides, testing at 5.2 µg/mL in test [1] gave an inhibition of 90%.
Take `CCCCOc1ccc(CN(CCC(C)(C)C)C(=O)Nc2ccc(F)cc2F)cc1` [1-(3,3-Dimethylbutyl)-1-[4-(n-butoxy)benzyl]-3-(2,4-difluorophenyl)urea]: the figures for the response vs control in vivo at 0.03 % in the test on cholesterol absorption (setting [2]) and with cholesterol absorption (setting [3]) were 32% and 42%, respectively. This molecule also had an inhibition at 5.2 µg/mL in test [1] of 90%.
Take `Cc1ccc(NC(=O)N(Cc2ccc(C)c(C)c2)Cc2ccccc2Cl)c(C)c1` [1-(3,4-Dimethylbenzyl)-1-(2-chlorobenzyl)-3-(2,4-dimethylphenyl)urea]: the response vs control in vivo at 0.03 % with cholesterol absorption (setting [2]) was 15%; with cholesterol absorption (setting [3]), 44%. For the same molecule, in test [1] (setting [4]), the inhibition at 5.2 µg/mL amounted to 92.9%.
For the molecule `CCCCCCCN(CCc1ccccc1)C(=O)Nc1ccc(Cl)cc1C` [1-(n-Heptyl)-1-(2-phenylethyl)-3-(2-methyl-4-chlorophenyl)urea], the response vs control in vivo at 0.03 % with cholesterol absorption (setting [2]) was found to be 49%; in the test on cholesterol absorption (setting [3]), 66%. Also, the inhibition at 5.2 µg/mL in test [1] (setting [4]) worked out at 93.8%.
Turning to `CCCCCCCN(Cc1ccc(CC(C)C)cc1)C(=O)Nc1ccc(Cl)cc1C` [1-(n-Heptyl)-1-[4-(isobutyl)benzyl]-3-(4-chloro-2-methylphenyl)urea], the response vs control in vivo at 0.01 % with cholesterol absorption (setting [2]) stood at 56%; in the test with cholesterol absorption (setting [3]) it was 62%. Also, in test [1] (rat adrenal ACAT), the IC50 turned out to be 1840 nM.
As for `CCCCOc1ccc(CN(Cc2ccccc2)C(=O)Nc2c(Cl)cc(Cl)cc2Cl)cc1` [1-Benzyl-1-(4-n-butoxybenzyl)-3-(2,4,6-trichlorophenyl)urea], the response vs control in vivo at 0.03 % in the test on cholesterol absorption (setting [2]) was 8%; with cholesterol absorption (setting [3]), 40%. For the same molecule, in test [1] (setting [4]), the inhibition at 5.2 µg/mL is 95.2%.

(Values after patent US4623662A, “Antiatherosclerotic ureas and thioureas” (American Cyanamid Company, priority 1985, dated 1986).)
